Reference: ChEMBL document CHEMBL2331401, “Orally active fumagillin analogues: transformations of a reactive warhead in the gastric environment” (ACS Med Chem Lett, 2013)
Activity calls are given as the source filed them. No cut-off for these calls is given here.

Legend:
[1] = biological target: Methionine aminopeptidase 2 (Homo sapiens) (UniProt P50579); assay: Inhibition of MetAP2 (unknown origin) using Met-AMC as substrate assessed as residual activity at 200 nM after 8 hrs
[2] = test system: Rattus norvegicus; assay: Inhibition of MetAP2 in Sprague-Dawley rat assessed as free MetAP2 level in whole blood at 3 mg/kg, po after 2 to 4 hrs by ELISA relative to vehicle-treated control; assay type: functional, organism-based; design: dose 3 mg/kg
[3] = test system: Rattus norvegicus; assay: Inhibition of MetAP2 in Sprague-Dawley rat assessed as free MetAP2 level in thymus at 3 mg/kg, po after 24 hrs by ELISA relative to vehicle-treated control; assay type: functional, organism-based; design: dose 3 mg/kg
[4] = test system: Rattus norvegicus; assay: Inhibition of MetAP2 in Sprague-Dawley rat assessed as free MetAP2 level in liver at 3 mg/kg, po after 24 hrs by ELISA relative to vehicle-treated control; assay type: functional, organism-based; design: dose 3 mg/kg
[5] = test system: HUVEC; assay: Antiproliferative activity against human HUVEC cells after 3 days; assay type: functional, cell-based; settings: 72 h
[6] = test system: Plasma; assay: Drug metabolism in rat plasma assessed as PPI-2458 formation at 4 degC after 1 hr by HPLC/MS/MS analysis; assay type: ADME, cell-free
[7] = biological target: Methionine aminopeptidase 2 (Homo sapiens) (UniProt P50579); assay: Inhibition of MetAP2 (unknown origin) using Met-AMC as substrate in HEPES buffer at pH 7.5 at 200 nM after 8 hrs
[8] = biological target: Methionine aminopeptidase 2 (Homo sapiens) (UniProt P50579); assay: Inhibition of MetAP2 (unknown origin) using Met-AMC as substrate in MES buffer at pH 6.5 at 200 nM after 8 hrs
[9] = Stability of the compound in MES buffer at pH 6.5 after 8 hrs by LC-MS analysis; assay type: physicochemical; settings: pH 6.5, 8 h

Sequence of Methionine aminopeptidase 2 (Homo sapiens) (P50579 2-478 limits assumed): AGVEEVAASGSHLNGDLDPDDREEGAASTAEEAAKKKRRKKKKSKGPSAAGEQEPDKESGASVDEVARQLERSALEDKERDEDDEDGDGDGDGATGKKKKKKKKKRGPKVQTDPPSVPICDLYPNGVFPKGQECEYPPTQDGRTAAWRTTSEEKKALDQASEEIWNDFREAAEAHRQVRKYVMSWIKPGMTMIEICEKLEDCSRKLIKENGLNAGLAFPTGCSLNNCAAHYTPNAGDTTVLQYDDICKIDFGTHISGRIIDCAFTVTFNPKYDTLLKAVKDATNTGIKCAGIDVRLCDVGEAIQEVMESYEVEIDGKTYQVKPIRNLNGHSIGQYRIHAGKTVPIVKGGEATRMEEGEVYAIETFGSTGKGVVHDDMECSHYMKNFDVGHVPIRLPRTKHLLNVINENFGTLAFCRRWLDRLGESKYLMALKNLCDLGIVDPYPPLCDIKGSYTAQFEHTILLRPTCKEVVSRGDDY

## CO[C@@H]1[C@H](OC(=O)N[C@@H](C(N)=O)C(C)C)CC[C@]2(O)CO[C@](C)([C@H](O)CC=C(C)C)[C@@H]12
[1]
  Activity: 107%
[2]
  inhibition: inactive
[3]
  inhibition: inactive
[4]
  inhibition: inactive
[5]
  IC50: > 30000 nM

## C=C([C@H](O)CC=C(C)C)[C@H]1[C@H](OC)[C@H](OC(=O)N[C@@H](C(N)=O)C(C)C)CC[C@]1(O)CCl
[1]
  Activity: 58%
[2]
  inhibition: Active
[3]
  inhibition: Active
[4]
  inhibition: Active
[5]
  IC50: 3.3 nM

## C=C([C@H](O)CC=C(C)C)[C@H]1[C@H](OC)[C@H](OC(=O)N[C@@H](C(N)=O)C(C)C)CC[C@]12CO2
[1]
  Activity: 27%
[2]
  inhibition: Active
[3]
  inhibition: Active
[4]
  inhibition: Active
[5]
  IC50: 3.1 nM

## CO[C@@H]1[C@H](OC(=O)N[C@@H](C(N)=O)C(C)C)CC[C@](O)(CCl)[C@H]1[C@@]1(C)O[C@@H]1CC=C(C)C
[1]
  Activity: 6%
[2]
  inhibition: Active
[3]
  inhibition: Active
[4]
  inhibition: Active
[6]
  Stability: Unstable
[5]
  IC50: 0.15 nM
[7]
  inhibition: Active
[8]
  inhibition: inactive
[9]
  Stability: Stable

## CO[C@@H]1[C@H](OC(=O)N[C@@H](C(N)=O)C(C)C)CC[C@@]2(O)CO[C@](C)([C@H](O)CC=C(C)C)[C@@H]12
[1]
  Activity: 105%
[2]
  inhibition: inactive
[3]
  inhibition: inactive
[4]
  inhibition: inactive
[5]
  IC50: > 30000 nM

## CO[C@H]1[C@@H]([C@@]2(C)O[C@@H]2CC=C(C)C)[C@]2(CC[C@H]1OC(=O)N[C@@H](C(N)=O)C(C)C)CO2
[1]
  Activity: 3%
[2]
  inhibition: Active
[3]
  inhibition: Active
[4]
  inhibition: Active
[5]
  IC50: 0.18 nM
[7]
  inhibition: Active
[8]
  inhibition: Active
